What all share (type): biochemical
Assay [1] concerns the target T1, human CSNK1A1 (Homo sapiens (Human), UniProt P48729). Kind of assay: CSNK1A1 Assay 2 (ADP-Glo, 1 μM ATP). Particulars: substrate biotin-Ahx-KRRRAL-pS-VASLPGL, read-out: CSNK1A1 Assay 2 IC50 [mol/l] (median). How it is done: CSNK1A1-inhibitory activity of compounds of the present invention in presence of 1 μM adenosine-tri-phosphate (ATP) was quantified employing the CSNK1A1 assay as described in the following paragraphs. In essence, the enzyme activity is measured by quantification of the adenosine-di-phosphate (ADP), which is generated as a co-product of the enzyme reaction, via the “ADP-Glo™ Kinase Assay” kit from the company Promega. This detection system works as follows: In a first step the ATP not consumed in the kinase reaction is quantitatively converted to cAMP employing an adenylate cyclase (“ADP-Glo-reagent”), then the adenylate cyclase is stopped and the ADP generated in the kinase reaction converted to ATP which generates in a luciferase-based reaction a glow-luminescence signal (“Kinase Detection Reagent”). Recombinant fusion protein of N-terminal Glutathion-S-Transferase (GST) and full-length human CSNK1A1, expressed by baculovirus infected insect cells and purified via Glutathion affinity chromatography, was purchased from Life Technologies (product no. PV4174) and used as enzyme. As substrate for the kinase reaction the biotinylated peptide biotin-Ahx-KRRRAL-pS-VASLPGL (C-terminus in amide form) was used which can be purchased e.g. from the company Biosyntan (Berlin-Buch, Germany).
For the assay 50 nl of a 100 fold concentrated solution of the test compound in DMSO was pipetted into a white 1536-well microtiter plate (Greiner Bio-One, Frickenhausen, Germany), 2 μL of a solution of CSNK1A1 in aqueous assay buffer [50 mM HEPES pH 7.5, 10% (v/v) glycerol, 10 mM MgCl2, 50 mM NaCl, 1 mM dithiothreitol, 0.01% (w/v) bovine serum albumin, 0.01% (v/v) Triton X-100] were added and the mixture was incubated for 15 min at 22° C. to allow pre-binding of the test compounds to the enzyme before the start of the kinase reaction. […] The concentration of CSNK1A1 was adjusted depending of the activity of the enzyme lot and was chosen appropriate to have the assay in the linear range, a typical concentrations are about 0.0375 ng/μL. The reaction was stopped by the addition of 2.5 μL of “ADP-Glo-reagent” (1:1.5 fold diluted with water) and the resulting mixture was incubated at 22° C. for 1 h to convert the ATP not consumed in the kinase reaction completely […]. Subsequently 2.5 μL of the “kinase detection reagent” (1.2 fold more concentrated than recommended by the producer) were added, the resulting mixture was incubated at 22° C. for 1 h and then the luminescence measured with a suitable measurement instrument (e.g. Viewlux™ from Perkin-Elmer). The amount of emitted light was taken as a measure for the amount of ADP generated and thereby for the activity of the CSNK1A1.

Assay [2] addresses wild-type Epidermal Growth Factor Receptor (EGFR) (Homo sapiens (Human), UniProt P00533). Kind of assay: WT-EGFR Kinase Assay (TR-FRET, 2 mM ATP). The following applies: EGFR Wildtyp- 2 mM ATP IC50 [mol/l] (median).
For another assay, the target named is human CSNK1D (Homo sapiens (Human), UniProt P48730). Kind of assay: CSNK1D Assay (ADP-Glo, 1 μM ATP). Particulars: read-out: CSNK1D IC50 [mol/l] (median). The method, then:
CSNK1 D-inhibitory activity of compounds of the present invention in presence of 1 μM adenosine-tri-phosphate (ATP) was quantified employing the CSNK1D assay as described in the following paragraphs. In essence, the enzyme activity is measured by quantification of the adenosine-di-phosphate (ADP), which is generated as a co-product of the enzyme reaction, via the “ADP-Glo™ Kinase Assay” kit from the company Promega. This detection system works as follows: In a first step the ATP not consumed in the kinase reaction is quantitatively converted to cAMP employing an adenylate cyclase (“ADP-Glo-reagent”), then the adenylate cyclase is stopped and the ADP generated in the kinase reaction converted to ATP which generates in a luciferase-based reaction a glow-luminescence signal (“Kinase Detection Reagent”). Recombinant fusion protein of N-terminal Glutathion-S-Transferase (GST) and full-length human CSNK1D, expressed by baculovirus infected insect cells and purified via Glutathion affinity chromatography, was purchased from Life Technologies (product no. PV3665) and used as enzyme. As substrate for the kinase reaction the biotinylated peptide Btn-Ahx-[…] (C-terminus in amide form) was used which can be purchased e.g. from the company Biosyntan (Berlin-Buch, Germany).
For the assay 50 nl of a 100 fold concentrated solution of the test compound in DMSO was pipetted into a white 1536-well microtiter plate (Greiner Bio-One, Frickenhausen, Germany), 2 μL of a solution of CSNK1D in aqueous assay buffer [50 mM HEPES pH 7.5, 10% (v/v) glycerol, 10 mM MgCl2, 50 mM NaCl, 1 mM dithiothreitol, 0.01% (w/v) bovine serum albumin, 0.01% (v/v) Triton X-100] were added and the mixture was incubated for 15 min at 22° C. to allow pre-binding of the test compounds to the enzyme before the start of the kinase reaction. […] The concentration of CSNK1 D was adjusted depending of the activity of the enzyme lot and was chosen appropriate to have the assay in the linear range, a typical concentration is about 0.5 ng/μL. The reaction was stopped by the addition of 2.5 μL of “ADP-Glo-reagent” (1:1.5 fold diluted with water) and the resulting mixture was incubated at 22° C. for 1 h to convert the ATP not consumed in the kinase reaction completely […]. Subsequently 2.5 μL of the “kinase detection reagent” (1.2 fold more concentrated than recommended by the producer) were added, the resulting mixture was incubated at 22° C. for 1 h and then the luminescence measured with a suitable measurement instrument (e.g. Viewlux™ from Perkin-Elmer). The amount of emitted light was taken as a measure for the amount of ADP generated and thereby for the activity of the CSNK1D.

Assay [3] concerns the target T1, human CSNK1A1. Kind of assay: CSNK1A1 High ATP Assay (ADP-Glo, 1 mM ATP). Particulars: read-out: CSNK1A1 high ATP assay IC50 [mol/l] (median). How it is done: CSNK1A1-inhibitory activity of compounds of the present invention in presence of 1 mM adenosine-tri-phosphate (ATP) was quantified employing the CSNK1A1-high-ATP-assay as described in the following paragraphs. In essence, the enzyme activity is measured by quantification of the adenosine-di-phosphate (ADP), which is generated as a co-product of the enzyme reaction, via the “ADP-Glo™ Kinase Assay” kit from the company Promega. This detection system works as follows: In a first step the ATP not consumed in the kinase reaction is quantitatively converted to cAMP employing an adenylate cyclase (“ADP-Glo-reagent”), then the adenylate cyclase is stopped and the ADP generated in the kinase reaction converted to ATP which generates in a luciferase-based reaction a glow-luminescence signal (“Kinase Detection Reagent”).
Recombinant fusion protein of N-terminal Glutathion-S-Transferase (GST) and full-length human CSNK1A1, expressed by baculovirus infected insect cells and purified via Glutathion affinity chromatography, was purchased from Life Technologies (product no. PV4174) and used as enzyme. As substrate for the kinase reaction the biotinylated peptide biotin-Ahx-KRRRAL-pS-VASLPGL (C-terminus in amide form) was used which can be purchased e.g. from the company Biosyntan (Berlin-Buch, Germany).
For the assay 50 nl of a 100 fold concentrated solution of the test compound in DMSO was pipetted into a white low volume 384-well microtiter plate (Greiner Bio-One, Frickenhausen, Germany), 2 μL of a solution of CSNK1A1 in aqueous assay buffer [50 mM HEPES pH 7.5, 10% (v/v) glycerol, 10 mM MgCl2, 50 mM NaCl, 1 mM dithiothreitol, 0.01% (w/v) bovine serum albumin, 0.01% (v/v) Triton X-100] were added and the mixture was incubated for 15 min at 22° C. to allow pre-binding of the test compounds to the enzyme before the start of the kinase reaction. […] The concentration of CSNK1A1 was adjusted depending of the activity of the enzyme lot and was chosen appropriate to have the assay in the linear range, a typical concentration is about 0.4 ng/μL. The reaction was stopped by the addition of 2.5 μL of “ADP-Glo-reagent” (1:1.5 fold diluted with water) and the resulting mixture was incubated at 22° C. for 1 h to convert the ATP not consumed in the kinase reaction completely […]. Subsequently 2.5 μL of the “kinase detection reagent” (1.2 fold more concentrated than recommended by the producer) were added, the resulting mixture was incubated at 22° C. for 1 h and then the luminescence measured with a suitable measurement instrument (e.g. Viewlux™ from Perkin-Elmer). The amount of emitted light was taken as a measure for the amount of ADP generated and thereby for the activity of the CSNK1A1.

T1 sequence (P48729 whole entry): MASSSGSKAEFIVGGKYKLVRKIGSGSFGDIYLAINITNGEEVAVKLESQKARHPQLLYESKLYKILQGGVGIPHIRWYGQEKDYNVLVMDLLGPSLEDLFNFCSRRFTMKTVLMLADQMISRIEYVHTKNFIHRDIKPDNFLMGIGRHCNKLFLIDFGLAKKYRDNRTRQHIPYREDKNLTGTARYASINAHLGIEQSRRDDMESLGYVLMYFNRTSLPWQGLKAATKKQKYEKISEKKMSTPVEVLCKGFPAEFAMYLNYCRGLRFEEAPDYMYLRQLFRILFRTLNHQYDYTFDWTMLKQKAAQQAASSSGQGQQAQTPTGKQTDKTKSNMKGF
Sequence of human CSNK1D (P48730 whole entry): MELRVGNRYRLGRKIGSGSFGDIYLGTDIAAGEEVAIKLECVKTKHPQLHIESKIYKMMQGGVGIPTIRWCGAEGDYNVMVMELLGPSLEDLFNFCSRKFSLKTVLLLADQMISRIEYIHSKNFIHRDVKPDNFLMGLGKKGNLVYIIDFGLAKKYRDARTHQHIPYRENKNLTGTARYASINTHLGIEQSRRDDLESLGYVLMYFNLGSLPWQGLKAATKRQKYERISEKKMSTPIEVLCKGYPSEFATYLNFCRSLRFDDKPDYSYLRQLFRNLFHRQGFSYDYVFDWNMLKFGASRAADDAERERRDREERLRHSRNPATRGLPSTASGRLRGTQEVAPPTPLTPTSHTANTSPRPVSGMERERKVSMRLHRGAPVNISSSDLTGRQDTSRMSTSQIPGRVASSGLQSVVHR
Sequence of wild-type Epidermal Growth Factor Receptor (EGFR) (P00533 669-1210): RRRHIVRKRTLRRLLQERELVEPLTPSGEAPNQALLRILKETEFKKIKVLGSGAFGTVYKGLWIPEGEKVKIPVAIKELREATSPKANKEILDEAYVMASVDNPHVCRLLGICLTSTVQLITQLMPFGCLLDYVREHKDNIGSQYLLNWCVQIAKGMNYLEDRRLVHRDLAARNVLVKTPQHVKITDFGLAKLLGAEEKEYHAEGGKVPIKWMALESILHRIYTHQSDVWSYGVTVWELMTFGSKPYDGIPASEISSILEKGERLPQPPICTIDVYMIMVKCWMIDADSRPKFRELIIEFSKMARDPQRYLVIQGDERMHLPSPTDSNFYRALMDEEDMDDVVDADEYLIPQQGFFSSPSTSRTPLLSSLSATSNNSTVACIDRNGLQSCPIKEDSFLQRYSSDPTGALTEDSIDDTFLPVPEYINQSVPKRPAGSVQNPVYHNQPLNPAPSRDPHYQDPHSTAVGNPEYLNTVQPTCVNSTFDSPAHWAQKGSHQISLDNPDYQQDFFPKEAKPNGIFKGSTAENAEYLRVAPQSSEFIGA

Regarding `CC(C(=O)Nc1cc(-c2[nH]c3c(c2Nc2ccccc2)C(=O)N(C)CC3)ccn1)c1ccc(Cl)cc1` (racemic) [Example 79, N-[4-(3-anilino-5-methyl-4-oxo-4,5,6,7-tetrahydro-1H-pyrrolo[3,2-c]pyridin-2-yl)pyridin-2-yl]-2-(4-chlorophenyl)propanamide], the IC50 is 8.93 nM at human CSNK1A1 [1], more than 20000 nM in assay [2], 19.5 nM at human CSNK1D and 337 nM at human CSNK1A1 [3].
Consider `CC1Cc2[nH]c(-c3ccnc(NC(=O)Cc4ccc(F)cc4)c3)c(Nc3ccccc3)c2C(=O)N1C` (racemic) [Example 88, N-{4-[3-anilino-5,6-dimethyl-4-oxo-4,5,6,7-tetrahydro-1H-pyrrolo[3,2-c]pyridin-2-yl]pyridin-2-yl}-2-(4-fluorophenyl)acetamide], for which the IC50 at human CSNK1A1 [1] stood at 2.33 nM; in assay [2] it was 727 nM; on human CSNK1D, 5.18 nM; on human CSNK1A1 [3] it was 65.1 nM.
The like results for `CC1Cc2[nH]c(-c3ccnc(NC(=O)Cc4ccncc4)c3)c(Nc3ccccc3)c2C(=O)N1C` (racemic) [Example 97, N-{4-[3-anilino-5,6-dimethyl-4-oxo-4,5,6,7-tetrahydro-1H-pyrrolo[3,2-c]pyridin-2-yl]pyridin-2-yl}-2-(pyridin-4-yl)acetamide] were, in that order, 4.4 nM, 529 nM, 5.73 nM and 47 nM.
Turning to `CC1Cc2[nH]c(-c3ccnc(NC(=O)Cc4ccc(F)cc4)c3)c(Nc3ccccc3F)c2C(=O)N1C` (racemic) [Example 100, N-{4-[3-(2-fluoroanilino)-5,6-dimethyl-4-oxo-4,5,6,7-tetrahydro-1H-pyrrolo[3,2-c]pyridin-2-yl]pyridin-2-yl}-2-(4-fluorophenyl)acetamide], the IC50 at human CSNK1A1 [1] came out at 3.97 nM; in assay [2], 3830 nM; on human CSNK1D, 15.6 nM; at human CSNK1A1 [3], 254 nM.
For `CC1(C)Cc2[nH]c(-c3ccnc(NC(=O)C(CC(F)F)c4ccc(F)cc4)c3)c(Nc3cccc(F)c3Cl)c2C(=O)N1` (racemic) [Example 109, N-{4-[3-(2-chloro-3-fluoroanilino)-6,6-dimethyl-4-oxo-4,5,6,7-tetrahydro-1H-pyrrolo[3,2-c]pyridin-2-yl]pyridin-2-yl}-4,4-difluoro-2-(4-fluorophenyl)butanamide], the IC50 on human CSNK1A1 [1] is 16.4 nM; in assay [2], more than 20000 nM; at human CSNK1D it was 14.1 nM; on human CSNK1A1 [3], 136 nM.
The like results for `CC1(C)Cc2[nH]c(-c3ccnc(NC(=O)C(CC(F)F)c4ccc(S(C)(=O)=O)cc4)c3)c(Nc3ccccc3)c2C(=O)N1` (racemic) [Example 118, N-[4-(3-anilino-6,6-dimethyl-4-oxo-4,5,6,7-tetrahydro-1H-pyrrolo[3,2-c]pyridin-2-yl)pyridin-2-yl]-4,4-difluoro-2-[4-(methanesulfonyl)phenyl]butanamide (Racemate)] were, in that order, 5.16 nM, 7260 nM, 12.9 nM and 107 nM.
With `O=C1NC2(CCC2)Cc2[nH]c(-c3ccnc(NC(=O)C(CC(F)F)c4ccc(F)cc4)c3)c(Nc3cccc(F)c3Cl)c21` (racemic) [Example 123, N-{4-[3′-(2-chloro-3-fluoroanilino)-4′-oxo-1′,4′,5′,7′-tetrahydrospiro[cyclobutane-1,6′-pyrrolo[3,2-c]pyridin]-2′-yl]pyridin-2-yl}-4,4-difluoro-2-(4-fluorophenyl)butanamide (Racemate)], the IC50 on human CSNK1A1 [1] amounted to 13.5 nM; in assay [2], 56.4 nM; on human CSNK1D it was 9.91 nM; at human CSNK1A1 [3], 29.1 nM.

Source of the values: patent US12227501B2, “3-amino-2-[2-(acylamino)pyridin-4-yl]-1,5,6,7-tetrahydro-4h-pyrrolo[3,2-c]pyridin-4-one as CSNK1 inhibitors” (Bayer Aktiengesellschaft, priority 2019, dated 2025).
